Laboratory results from PubChem BioAssay AID1918933 (Molecular Pharmacology Branch, DTP, NCI, 2023).
“And” between values parts separate entries of the source, which are not always exact repeats. Equal values may be shown once.

System: 186277-243-T-J2-PDC complex spheroid viability
Test: Anticancer human tumor 186277-243-T-J2-PDC patient-derived colon adenocarcinoma cell line growth inhibition
Conditions: for viability, T/C: stronger effect = lower value
Description: Multicellular complex tumor spheroid response to LSD1 Inhibitor Iadademstat in combination with a variety of drugs and investigational agents in selected tumor cell lines
The current study was undertaken to assess response to LSD1 inhibitors in combination with standard-of-care drugs and investigational agents in solid tumor complex spheroid models as well as in the K-562 leukemia. Complex spheroids include a stromal component modeled by human endothelial cells (HUVEC) and fibroblasts modeled by human mesenchymal stem cells (MSCs). The concentration ranges selected for each drug and investigational agent were based upon clinically achievable concentrations if the clinical Cmax of the agent was known.
Compounds. The drugs and investigational agents used in this study are listed on Table 1. All of the agents used, including staurosporine (NSC755774) and gemcitabine (NSC613327), were obtained from the Developmental Therapeutics Program, NCI. FDA-approved anticancer drugs are available from the NCI at http://dtp.nci.nih.gov/branches/dscb/oncology_drugset_explanation.html. Drugs and investigational agents were >95% pure by proton nuclear magnetic resonance (NMR) and liquid chromatography/mass spectrometry (LC/MS). Stock solutions were prepared at 400x in DMSO, stored at -70 degrees C, and diluted in fresh medium prior to their use. The final concentration of DMSO in cell culture wells never exceeded 0.25% (v/v). The FDA-approved anticancer drug set is available from the Developmental Therapeutics Program at https://dtp.cancer.gov/organization/dscb/obtaining/available_plates.htm. All drugs and investigational agents were tested over a range starting from a high concentration at or near the clinical Cmax and decreasing in half-log increments. If the clinical Cmax for an agent had not been determined, the highest concentration tested was 10 microM.
Cell Lines. The patient-derived cancer cell (PDC) lines: 292921-168-R-J2-PDC, K24384-001-R-PDC, and 521955-158-R2-J5-PDC pancreatic carcinomas, 556581-035-R-J1 ovarian carcinoma, 324938-238-R-J1-PDC, 855422-203-R-J1-PDC and 883617-216-R-J1-PDC urothelial bladder carcinomas, 743489-274-T-PDC renal cell carcinoma, 138582-R-J1 Merkel cell tumor, K60290-347-R-J1 and K57222-313-R-J1-PDC glioblastomas, 653999-131-R-J2-PDC, LG0703-F948-PDC, and 349418-098-R-PDC non-small cell lung carcinomas, 885512-296-R-J2-PDC, 171881-019-R-J1-PDC breast carcinomas and 186277-243-T-J2-PDC and 233499-124-R-J2-PDC colon carcinomas were obtained from the NCI Patient-Derived Models Repository (PDMR, https://pdmr.cancer.gov). The established cell lines NCI/ADR-RES (RRID:CVCL_14520 and OVCAR-5 (RRID:CVCL_1628) ovarian carcinomas, 786-O (RRID:CVCL_1051) and A498 (RRID:CVCL_A498) renal cell carcinoma, NCI-H211 (ATCC, cat. CRL-5824; RRID:CVCL_1529), NCI-H196 (ATCC, cat. CRL-5823, RRID:CVCL_1509), SW 1271 (ATCC, cat. CRL-2177, RRID:CVCL_1716) and NCI-H1876 (ATCC, cat. CRL-5902, RRID:CVCL_1503) small cell lung carcinomas, MDA-MB-231 (RRID:CVCL_0062) and MDA-MB-468 (RRID:CVCL_0419)breast carcinomas (10-12). Pooled donor human umbilical vein endothelial cells (HUVEC, Lonza, cat. CC-2519) and human mesenchymal stem cells (hMSC, Lonza, cat. PT-2501) were purchased from Lonza (Walkersville, MD).
Cell Culture. All cells were maintained in an incubator at 37 degrees C and 5% CO2 with 95% humidity. The PDC lines were cultured according to standard operating procedures established by the NCI PDMR (https://pdmr.cancer.gov). Briefly all PDCs were thawed and cultured in Matrigel-coated flasks prepared with a working solution of 1X Ham's F-12 nutrient mix, without supplementation (Invitrogen, Waltham, MA, cat. 11765054), 100 U/mL penicillin-streptomycin (Invitrogen, cat. 15140122), and 2.5% Matrigel (Corning Inc., Corning, NY, cat. 354248) for the first three passages. […]

[1] = curve of first compound, second compound 0.1 µM
[2] = curve of first compound, second compound 0.316 µM
[3] = curve of first compound, second compound 1 µM
[4] = curve of first compound, second compound 3.16 µM
[5] = curve of first compound, second compound 10 µM
[6] = second compound 0.1 µM, first compound 0.0316 µM
[7] = second compound 0.1 µM, first compound 0.1 µM
[8] = second compound 0.1 µM, first compound 0.316 µM
[9] = second compound 0.1 µM, first compound 1 µM
[10] = second compound 0.316 µM, first compound 0.0316 µM
[11] = second compound 0.316 µM, first compound 0.1 µM
[12] = second compound 0.316 µM, first compound 0.316 µM
[13] = second compound 0.316 µM, first compound 1 µM
[14] = second compound 1 µM, first compound 0.0316 µM
[15] = second compound 1 µM, first compound 0.1 µM
[16] = second compound 1 µM, first compound 0.316 µM
[17] = second compound 1 µM, first compound 1 µM
[18] = second compound 3.16 µM, first compound 0.0316 µM
[19] = second compound 3.16 µM, first compound 0.1 µM
[20] = second compound 3.16 µM, first compound 0.316 µM
[21] = second compound 3.16 µM, first compound 1 µM
[22] = second compound 10 µM, first compound 0.0316 µM
[23] = second compound 10 µM, first compound 0.1 µM
[24] = second compound 10 µM, first compound 0.316 µM
[25] = second compound 10 µM, first compound 1 µM
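Note: 7 day exposure to compounds.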
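Throughout, for viability, T/C: 100% = DMSO vehicle control viability.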

Structure (SMILES) | IC50 [1] [nM] | IC50 [2] [nM] | IC50 [3] [nM] | IC50 [4] [nM] | IC50 [5] [nM] | viability, T/C [6] [%] | viability, T/C [7] [%] | viability, T/C [8] [%] | viability, T/C [9] [%] | viability, T/C [10] [%] | viability, T/C [11] [%] | viability, T/C [12] [%] | viability, T/C [13] [%] | viability, T/C [14] [%] | viability, T/C [15] [%] | viability, T/C [16] [%] | viability, T/C [17] [%] | viability, T/C [18] [%] | viability, T/C [19] [%] | viability, T/C [20] [%] | other results
Nc1ncn(C2CC(O)C(CO)O2)c(=O)n1 (configuration not stated) + NC1CC1c1ccc(-c2cccc(O)c2)cc1 | > 1000 | > 1000 | > 1000 | > 1000 | > 1000 | 112 | 106 | 148 | 159 | 114 | 138 | 143 | 150 | 107 | 119 | 137 | 157 | 97.3 | 121 | 140 | viability, T/C (second compound 0.1 µM, first compound 0.00316 µM): 108%; viability, T/C (second compound 0.1 µM, first compound 0.01 µM): 103%; viability, T/C (second compound 0.316 µM, first compound 0.00316 µM): 100%; viability, T/C (second compound 0.316 µM, first compound 0.01 µM): 102%; viability, T/C (second compound 1 µM, first compound 0.00316 µM): 104%; viability, T/C (second compound 1 µM, first compound 0.01 µM): 109%; viability, T/C (second compound 3.16 µM, first compound 0.00316 µM): 100%; viability, T/C (second compound 3.16 µM, first compound 0.01 µM): 95.5%; viability, T/C [21]: 162%; viability, T/C (second compound 10 µM, first compound 0.00316 µM): 110%; viability, T/C (second compound 10 µM, first compound 0.01 µM): 107%; viability, T/C [22]: 98.6%; viability, T/C [23]: 112%; viability, T/C [24]: 124%; viability, T/C [25]: 148%
NS(=O)(=O)OCC1CC(n2ccc3c(NC4CCc5ccccc54)ncnc32)CC1O (configuration not stated) |  |  |  |  |  |  |  |  |  |  |  |  |  |  |  |  |  |  |  |  | viability, T/C (compound 0.00949 µM): 93.9% and 100%; viability, T/C (compound 0.03 µM): 94.9% and 85.9%; viability, T/C (compound 0.0949 µM): 62.6% and 66.7%; viability, T/C (compound 0.3 µM): 37.2% and 33%; viability, T/C (compound 0.949 µM): 20.5% and 9.16%; viability, T/C (compound 3 µM): 7.98% and 4.41%; IC50 (curve of compound): 180 nM and 162 nM
CC1(C)CCC(CN2CCN(c3ccc(C(=O)NS(=O)(=O)c4ccc(NCC5CCOCC5)c([N+](=O)[O-])c4)c(Oc4cnc5[nH]ccc5c4)c3)CC2)=C(c2ccc(Cl)cc2)C1 + NC1CC1c1ccc(-c2cccc(O)c2)cc1 | 2230 | 2260 | 2240 | 2410 | 2150 | 106 | 101 | 117 | 99.1 | 98.2 | 97.4 | 108 | 98.8 | 102 | 106 | 98.5 | 91.3 | 106 | 101 | 107 | viability, T/C (second compound 0.1 µM, first compound 3.16 µM): 28.4%; viability, T/C (second compound 0.1 µM, first compound 10 µM): 0.17%; viability, T/C (second compound 0.316 µM, first compound 3.16 µM): 29.9%; viability, T/C (second compound 0.316 µM, first compound 10 µM): 0.15%; viability, T/C (second compound 1 µM, first compound 3.16 µM): 32.6%; viability, T/C (second compound 1 µM, first compound 10 µM): 0.14%; viability, T/C [21]: 94.4%; viability, T/C (second compound 3.16 µM, first compound 3.16 µM): 36.4%; viability, T/C (second compound 3.16 µM, first compound 10 µM): 0.15%; viability, T/C [22]: 107%; viability, T/C [23]: 107%; viability, T/C [24]: 101%; viability, T/C [25]: 99.7%; viability, T/C (second compound 10 µM, first compound 3.16 µM): 25%; viability, T/C (second compound 10 µM, first compound 10 µM): 0.2%
